# Source: ChEMBL document CHEMBL3608214, “Optimization of Novel Antagonists to the Neurokinin-3 Receptor for the Treatment of Sex-Hormone Disorders (Part II)” (ACS Med Chem Lett, 2015)
# pIC50, pKi: −log10 of the molar value.
# How the values were obtained:
# [1] = Distribution coefficient, log D of the compound at pH 7.4; format: physicochemical; conditions: octanol/water
# [2] = Unbound fraction in monkey plasma at 5 mg/kg, po after 90 mins; conditions: rhesus monkey
# [3] = Unbound fraction in rat brain at 1 mg/kg after 60 mins
# [4] = Ratio of unbound drug concentration in brain to plasma of rat at 1 mg/kg after 60 mins
# [5] = Volume of distribution at steady state in monkey at 10 mg/kg, iv; conditions: rhesus monkey, in vivo
# [6] = Binding affinity to monkey NK3R
# [7] = tested on: Rattus norvegicus; assay: Inhibition of luteinizing hormone release in orally dosed rat; conditions: po, read-out: MED
# [8] = tested on: Cynomolgus monkey; assay: Inhibition of luteinizing hormone release in orally dosed castrated cynomolgus monkey; conditions: Macaca fascicularis, po, read-out: MED
# [9] = target: Voltage-gated inwardly rectifying potassium channel KCNH2 (Homo sapiens, UniProt Q12809)
# Chain of Voltage-gated inwardly rectifying potassium channel KCNH2 (Q12809 whole entry): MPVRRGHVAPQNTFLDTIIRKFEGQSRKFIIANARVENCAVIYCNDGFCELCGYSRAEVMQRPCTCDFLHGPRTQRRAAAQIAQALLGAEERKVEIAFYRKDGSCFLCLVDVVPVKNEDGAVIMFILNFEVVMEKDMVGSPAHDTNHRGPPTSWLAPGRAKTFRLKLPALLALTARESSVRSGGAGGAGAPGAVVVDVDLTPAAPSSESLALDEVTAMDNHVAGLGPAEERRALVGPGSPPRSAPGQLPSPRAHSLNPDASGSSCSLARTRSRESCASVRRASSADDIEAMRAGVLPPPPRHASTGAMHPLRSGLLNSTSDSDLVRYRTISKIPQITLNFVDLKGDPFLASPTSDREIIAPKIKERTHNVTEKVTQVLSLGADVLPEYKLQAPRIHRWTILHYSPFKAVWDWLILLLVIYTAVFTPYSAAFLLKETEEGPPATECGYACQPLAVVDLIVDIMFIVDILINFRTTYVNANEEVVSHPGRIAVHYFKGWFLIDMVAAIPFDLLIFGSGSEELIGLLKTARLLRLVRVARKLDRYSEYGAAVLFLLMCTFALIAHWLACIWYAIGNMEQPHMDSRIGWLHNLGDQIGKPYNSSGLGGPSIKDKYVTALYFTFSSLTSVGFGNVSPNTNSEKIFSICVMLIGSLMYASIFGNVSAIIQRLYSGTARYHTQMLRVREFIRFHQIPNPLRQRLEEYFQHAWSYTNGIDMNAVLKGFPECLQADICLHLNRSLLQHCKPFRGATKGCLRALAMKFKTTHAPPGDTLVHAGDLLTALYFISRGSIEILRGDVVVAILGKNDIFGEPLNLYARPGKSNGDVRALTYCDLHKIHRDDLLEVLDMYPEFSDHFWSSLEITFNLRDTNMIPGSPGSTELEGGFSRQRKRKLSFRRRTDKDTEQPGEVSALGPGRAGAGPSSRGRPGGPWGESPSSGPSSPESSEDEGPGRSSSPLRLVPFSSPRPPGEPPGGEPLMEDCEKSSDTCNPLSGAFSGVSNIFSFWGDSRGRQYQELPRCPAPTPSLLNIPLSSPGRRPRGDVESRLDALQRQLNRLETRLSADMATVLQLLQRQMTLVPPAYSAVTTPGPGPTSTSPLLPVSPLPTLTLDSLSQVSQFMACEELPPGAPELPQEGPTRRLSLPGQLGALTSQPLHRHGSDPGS
# [10] = target: T1, Neuromedin-K receptor (Homo sapiens, UniProt P29371)
# T1 sequence (P29371 whole entry): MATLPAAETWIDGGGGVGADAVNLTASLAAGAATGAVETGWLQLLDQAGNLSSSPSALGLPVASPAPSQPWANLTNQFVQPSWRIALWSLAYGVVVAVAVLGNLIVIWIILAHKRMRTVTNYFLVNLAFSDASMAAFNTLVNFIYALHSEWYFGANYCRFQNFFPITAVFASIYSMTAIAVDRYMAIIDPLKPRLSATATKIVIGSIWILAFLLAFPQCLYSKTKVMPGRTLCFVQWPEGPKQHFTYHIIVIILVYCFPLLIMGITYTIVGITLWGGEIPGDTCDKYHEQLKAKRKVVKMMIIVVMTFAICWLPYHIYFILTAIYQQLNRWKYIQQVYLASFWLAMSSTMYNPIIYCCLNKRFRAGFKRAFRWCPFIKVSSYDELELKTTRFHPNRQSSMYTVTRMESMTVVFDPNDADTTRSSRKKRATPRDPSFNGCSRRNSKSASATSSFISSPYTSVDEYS
# [11] = target: Cytochrome P450 3A4 (Homo sapiens, UniProt P08684)
# Chain of Cytochrome P450 3A4 (P08684 whole entry): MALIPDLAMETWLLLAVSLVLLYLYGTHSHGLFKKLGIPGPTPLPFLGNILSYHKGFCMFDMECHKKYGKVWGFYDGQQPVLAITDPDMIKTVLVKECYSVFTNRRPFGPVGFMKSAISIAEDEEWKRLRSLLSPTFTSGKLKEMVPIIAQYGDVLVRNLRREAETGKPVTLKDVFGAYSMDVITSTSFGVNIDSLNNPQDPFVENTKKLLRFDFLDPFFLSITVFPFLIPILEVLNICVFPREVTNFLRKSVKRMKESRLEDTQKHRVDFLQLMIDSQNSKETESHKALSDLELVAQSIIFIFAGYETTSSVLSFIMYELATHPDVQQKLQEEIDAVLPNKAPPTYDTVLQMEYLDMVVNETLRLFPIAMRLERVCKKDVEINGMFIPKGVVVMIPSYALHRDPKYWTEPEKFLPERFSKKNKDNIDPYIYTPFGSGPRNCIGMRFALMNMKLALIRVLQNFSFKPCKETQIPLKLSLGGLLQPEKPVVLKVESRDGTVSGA
# Description: Inhibition of CYP3A4 (unknown origin)
# [12] = target: Cytochrome P450 2D6 (Homo sapiens, UniProt P10635)
# Chain of Cytochrome P450 2D6 (P10635 whole entry): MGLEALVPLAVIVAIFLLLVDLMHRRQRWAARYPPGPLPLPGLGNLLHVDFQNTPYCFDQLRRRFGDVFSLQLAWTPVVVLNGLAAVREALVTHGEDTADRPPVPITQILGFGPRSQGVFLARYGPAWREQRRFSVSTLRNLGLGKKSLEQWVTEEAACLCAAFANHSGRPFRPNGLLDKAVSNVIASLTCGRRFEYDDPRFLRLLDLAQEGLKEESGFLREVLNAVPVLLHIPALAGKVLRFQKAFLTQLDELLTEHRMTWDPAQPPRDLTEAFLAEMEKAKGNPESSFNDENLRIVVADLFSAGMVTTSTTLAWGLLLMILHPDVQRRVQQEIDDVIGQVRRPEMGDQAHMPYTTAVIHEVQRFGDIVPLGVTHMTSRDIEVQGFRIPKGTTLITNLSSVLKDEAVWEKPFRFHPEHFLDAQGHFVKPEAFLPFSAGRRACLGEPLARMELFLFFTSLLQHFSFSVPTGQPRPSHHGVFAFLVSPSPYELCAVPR
# Description: Inhibition of CYP2D6 (unknown origin)
# [13] = target: Cytochrome P450 2C9 (Homo sapiens, UniProt P11712)
# Chain of Cytochrome P450 2C9 (P11712 whole entry): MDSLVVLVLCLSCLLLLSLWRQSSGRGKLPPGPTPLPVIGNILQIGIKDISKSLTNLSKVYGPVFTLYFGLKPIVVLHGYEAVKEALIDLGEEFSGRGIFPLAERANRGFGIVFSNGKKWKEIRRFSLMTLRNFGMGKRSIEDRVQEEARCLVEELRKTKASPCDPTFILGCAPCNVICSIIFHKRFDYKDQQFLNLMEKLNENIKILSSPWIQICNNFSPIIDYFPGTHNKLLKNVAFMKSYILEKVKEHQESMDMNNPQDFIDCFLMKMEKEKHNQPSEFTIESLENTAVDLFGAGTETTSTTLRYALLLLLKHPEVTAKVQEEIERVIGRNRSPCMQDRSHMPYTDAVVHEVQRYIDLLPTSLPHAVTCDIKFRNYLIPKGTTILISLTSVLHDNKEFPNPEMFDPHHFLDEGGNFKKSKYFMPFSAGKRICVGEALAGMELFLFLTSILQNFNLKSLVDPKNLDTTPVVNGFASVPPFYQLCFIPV
# Description: Inhibition of CYP2C9 (unknown origin)
# [14] = target: Cytochrome P450 2C19 (Homo sapiens, UniProt P33261)
# Chain of Cytochrome P450 2C19 (P33261 whole entry): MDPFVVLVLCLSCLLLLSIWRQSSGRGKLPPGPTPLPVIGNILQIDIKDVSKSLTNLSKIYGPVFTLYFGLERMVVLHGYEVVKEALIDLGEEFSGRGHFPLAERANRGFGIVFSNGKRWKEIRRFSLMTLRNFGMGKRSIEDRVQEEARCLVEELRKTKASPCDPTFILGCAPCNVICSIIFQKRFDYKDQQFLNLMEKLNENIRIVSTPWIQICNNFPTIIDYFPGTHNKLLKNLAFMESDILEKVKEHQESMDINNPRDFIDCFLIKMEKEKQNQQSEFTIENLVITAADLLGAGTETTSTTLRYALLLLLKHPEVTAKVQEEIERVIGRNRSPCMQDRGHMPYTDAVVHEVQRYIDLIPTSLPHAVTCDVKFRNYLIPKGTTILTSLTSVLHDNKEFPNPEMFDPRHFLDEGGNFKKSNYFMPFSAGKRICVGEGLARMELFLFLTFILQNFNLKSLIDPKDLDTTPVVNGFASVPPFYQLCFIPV
# Description: Inhibition of CYP2C19 (unknown origin)
# [15] = target: T2, Cytochrome P450 1A2 (Homo sapiens, UniProt P05177)
# T2 sequence (P05177 whole entry): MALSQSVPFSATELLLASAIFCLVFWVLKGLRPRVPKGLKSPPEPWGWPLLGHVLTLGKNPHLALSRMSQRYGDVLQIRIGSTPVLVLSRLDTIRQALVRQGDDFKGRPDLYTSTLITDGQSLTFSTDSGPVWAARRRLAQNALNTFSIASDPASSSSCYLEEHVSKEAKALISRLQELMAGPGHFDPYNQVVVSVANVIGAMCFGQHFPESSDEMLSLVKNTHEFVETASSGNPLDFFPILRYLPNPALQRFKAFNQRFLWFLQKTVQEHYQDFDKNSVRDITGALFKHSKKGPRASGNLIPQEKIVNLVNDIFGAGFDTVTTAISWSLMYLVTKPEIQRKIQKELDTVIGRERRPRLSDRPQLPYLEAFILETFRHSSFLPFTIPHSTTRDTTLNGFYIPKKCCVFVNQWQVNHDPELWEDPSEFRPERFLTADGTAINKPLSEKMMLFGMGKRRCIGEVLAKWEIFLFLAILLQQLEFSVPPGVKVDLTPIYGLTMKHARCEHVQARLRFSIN
# Description: Inhibition of CYP1A2 (unknown origin)
# [16] = target: T1, Neuromedin-K receptor; remark: listed apart in the source
# [17] = target: T3, Neuromedin-K receptor (Rattus norvegicus, UniProt P16177); assay: Binding affinity to rat NK3R
# T3 sequence (P16177 whole entry): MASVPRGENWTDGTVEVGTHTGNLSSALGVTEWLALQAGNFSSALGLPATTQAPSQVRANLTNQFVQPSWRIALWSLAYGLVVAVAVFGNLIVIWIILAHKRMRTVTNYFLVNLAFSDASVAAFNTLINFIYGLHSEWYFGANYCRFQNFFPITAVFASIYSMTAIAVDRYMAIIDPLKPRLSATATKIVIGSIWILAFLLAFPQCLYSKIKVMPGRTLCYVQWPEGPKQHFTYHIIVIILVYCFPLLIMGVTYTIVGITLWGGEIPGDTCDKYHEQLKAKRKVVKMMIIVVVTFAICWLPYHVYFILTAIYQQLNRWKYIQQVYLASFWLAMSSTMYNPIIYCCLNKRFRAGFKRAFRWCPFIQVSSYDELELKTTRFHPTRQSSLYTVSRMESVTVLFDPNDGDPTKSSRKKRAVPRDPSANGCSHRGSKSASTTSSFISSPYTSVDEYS
# [18] = Volume of distribution at steady state in rat at 1 mg/kg, iv; conditions: in vivo
# [19] = Half life in rat at 1 mg/kg, iv; conditions: in vivo
SMILES,logD [1],minimal effective dose [7],pKi [10],pIC50 [16],pKi [17],further results
C[C@@H]1c2nnc(-c3csc(-c4ccc(F)cc4F)n3)n2CCN1C(=O)c1ccc(-c2cccs2)cc1,5,,,,,
Cc1nc(-c2nnc3n2CCN(C(=O)c2ccc(-c4cccs4)cc2)[C@@H]3C)cs1,,60 mg/kg,,,,logD ([1]; read-out: logD): 3.1; fraction unbound at […] [2]: 0.043; fraction unbound at 1 h [3]: 0.028; Kp uu at 1 h [4]: 0.14; Vd [5]: 1.52 L/kg; pKi [6]: 7.70; minimal effective dose [8]: 20 mg/kg; IC50 [9]: 24000 nM
Cc1nnc(-c2nnc3n2CCN(C(=O)c2ccc(F)cc2)[C@@H]3C)s1,0.8,,,,,
Cc1noc(-c2nnc3n2CCN(C(=O)c2ccc(F)cc2)[C@@H]3C)n1,0.7,,6.90,,,pIC50 [11]: < 4.00; pIC50 [12]: < 4.00; pIC50 [13]: 4.38; pIC50 [14]: 4.47; pIC50 [15]: 4.07
CC(C)c1noc(-c2nnc3n2CCN(C(=O)c2ccc(F)cc2)[C@@H]3C)n1,1.7,,7.60,7.40,,
Cc1nsc(-c2nnc3n2CCN(C(=O)c2ccc(F)cc2)C3)n1,,30 mg/kg,7.00,6.80,5.69,
C[C@@H]1c2nnc(-c3ncns3)n2CCN1C(=O)c1ccc(F)cc1,1.1,,,,,
Cc1nsc(-c2nnc3n2CCN(C(=O)c2ccc(F)cc2)C3(C)C)n1,2,,,,,pIC50 [11]: < 4.00; pIC50 [12]: < 4.00; pIC50 [13]: 4.92; pIC50 [14]: 5.40; pIC50 [15]: 4.29
Cc1nsc(-c2nnc3n2CCN(C(=O)c2ccc(Cl)cc2)[C@@H]3C)n1,,,7.70,7.50,,
C[C@@H]1c2nnc(-c3nc(C(F)(F)F)ns3)n2CCN1C(=O)c1ccc(F)cc1,,10 mg/kg,,,7.07,
Cc1nsc(-c2nnc3n2CCN(C(=O)c2ccccc2)[C@@H]3C)n1,,30 mg/kg,7.30,7.20,6.24,
Cc1nsc(-c2nnc3n2CCN(C(=O)c2ccc(F)cc2)[C@@H]3CCO)n1,,,7.50,7.10,6.61,
Cc1nsc(-c2nnc3n2CCN(C(=O)c2ccc(F)cc2)[C@@H]3C)n1 [FEZOLINETANT],,,7.60,7.70,6.66,Vd [18]: 0.6 L/kg; half-life [19]: 4.65 h
